In the supplement of paper PMC5844555:

How the values were obtained:
Assay in all cases: 3' UTR reporter interaction score (median-centred robust z-score of log2 firefly/Renilla activity); higher = less repression of the 3' UTR reporter
Conditions in all cases: HEK293T; 48 h
NOTCH1 = system: NOTCH1
In short: (§1)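 A firefly luc2P reporter carrying the gene's 3' UTR (100 ng), Renilla pRL-TK control (20 ng) and miRNA mimic (2.5 pmol) were co-transfected with DharmaFECT Duo into HEK293T cells plated at 10,000/well in 96-well plates. Luciferase activities were read 48 h post-transfection. The interaction score is the log firefly/Renilla ratio as a per-plate robust z-score from median and median absolute deviation, median-centred per miRNA, and more negative indicates interaction. Values are averages of at least two independent screens.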

FBXW7 = system: FBXW7
In short: as §1

PHF6 = system: PHF6
In short: as §1

PHOX2B = system: PHOX2B
In short: as §1

MYCN = system: MYCN
In short: as §1

MYB = system: MYB
In short: as §1

MYT1L = system: MYT1L
In short: as §1

TP53 = system: TP53
In short: as §1

HRAS = system: HRAS
In short: as §1

MYC = system: MYC
In short: as §1

EZH2 = system: EZH2
In short: as §1

ZEB2 = system: ZEB2
In short: as §1

RB1 = system: RB1
In short: as §1

BRCA2 = system: BRCA2
In short: as §1

Sequence: GUGUCUUUUGCUCUGCAGUCA
- 3' UTR reporter interaction score (NOTCH1): -1.08
- 3' UTR reporter interaction score (FBXW7): -1.58
- 3' UTR reporter interaction score (PHF6): -0.433
- 3' UTR reporter interaction score (PHOX2B): -2.8
- 3' UTR reporter interaction score (MYCN): 0.0597
- 3' UTR reporter interaction score (MYB): -0.175
- 3' UTR reporter interaction score (MYT1L): 0.207
- 3' UTR reporter interaction score (TP53): 0.375
- 3' UTR reporter interaction score (HRAS): 2.01
- 3' UTR reporter interaction score (MYC): 1.06
- 3' UTR reporter interaction score (EZH2): 1.94
- 3' UTR reporter interaction score (ZEB2): -1.45
- 3' UTR reporter interaction score (RB1): 0.189
- 3' UTR reporter interaction score (BRCA2): -0.493

Sequence: CUUUUUGCGGUCUGGGCUUGC
- 3' UTR reporter interaction score (NOTCH1): -0.155
- 3' UTR reporter interaction score (FBXW7): -2.11
- 3' UTR reporter interaction score (PHF6): -1.29
- 3' UTR reporter interaction score (PHOX2B): -0.0143
- 3' UTR reporter interaction score (MYCN): 0.522
- 3' UTR reporter interaction score (MYB): 0.803
- 3' UTR reporter interaction score (MYT1L): 1.18
- 3' UTR reporter interaction score (TP53): -0.0822
- 3' UTR reporter interaction score (HRAS): 0.493
- 3' UTR reporter interaction score (MYC): 0.829
- 3' UTR reporter interaction score (EZH2): 0.547
- 3' UTR reporter interaction score (ZEB2): -2.61
- 3' UTR reporter interaction score (RB1): -0.184
- 3' UTR reporter interaction score (BRCA2): -0.285

Sequence: GAGCCAGUUGGACAGGAGC
- 3' UTR reporter interaction score (NOTCH1): -0.874
- 3' UTR reporter interaction score (FBXW7): 0.107
- 3' UTR reporter interaction score (PHF6): -1.97
- 3' UTR reporter interaction score (PHOX2B): 0.261
- 3' UTR reporter interaction score (MYCN): 0.298
- 3' UTR reporter interaction score (MYB): 0.363
- 3' UTR reporter interaction score (MYT1L): 0.521
- 3' UTR reporter interaction score (TP53): 1
- 3' UTR reporter interaction score (HRAS): 0.00377
- 3' UTR reporter interaction score (MYC): -0.0272
- 3' UTR reporter interaction score (EZH2): -0.353
- 3' UTR reporter interaction score (ZEB2): -0.65
- 3' UTR reporter interaction score (RB1): -0.775
- 3' UTR reporter interaction score (BRCA2): -1.34

Sequence: UCCAGCUCCUAUAUGAUGCCUUU
- 3' UTR reporter interaction score (NOTCH1): -1.09
- 3' UTR reporter interaction score (FBXW7): 0.91
- 3' UTR reporter interaction score (PHF6): -0.704
- 3' UTR reporter interaction score (PHOX2B): -0.208
- 3' UTR reporter interaction score (MYCN): -0.396
- 3' UTR reporter interaction score (MYB): 0.963
- 3' UTR reporter interaction score (MYT1L): -1.49
- 3' UTR reporter interaction score (TP53): 0.0762
- 3' UTR reporter interaction score (HRAS): -0.216
- 3' UTR reporter interaction score (MYC): 0.624
- 3' UTR reporter interaction score (EZH2): 0.255
- 3' UTR reporter interaction score (ZEB2): -2.75
- 3' UTR reporter interaction score (RB1): -0.767
- 3' UTR reporter interaction score (BRCA2): 0.152
